# Activity calls are given as the source filed them. No cut-off for these calls is given here.
# Tests used:
# Mus musculus [1] = assay: Analgetic activity against CF-1 mouse assessed as increase in reaction time at 2.5 mg/kg, sc by heat stimulus induced tail flick response assay; format: functional, organism-based; parameters: dose 2.5 mg/kg
# Mus musculus [2] = assay: Analgetic activity against CF-1 mouse assessed as increase in reaction time at 60 mg/kg, po by heat stimulus induced tail flick response assay; format: functional, organism-based; parameters: dose 60 mg/kg
# Mus musculus [3] = assay: Analgetic activity in sc dosed CF1S mouse assessed as writhing by phenylquinone writhing test; format: functional; details: Mus musculus, CF1S, sc; read-out: ED50
# Mus musculus [4] = assay: Analgetic activity against CF-1 mouse assessed as increase in reaction time at 320 mg/kg, sc by heat stimulus induced tail flick response assay; format: functional, organism-based; parameters: dose 320 mg/kg
# Mus musculus [5] = assay: Analgetic activity against CF-1 mouse assessed as increase in reaction time at 160 mg/kg, po by heat stimulus induced tail flick response assay; format: functional, organism-based; parameters: dose 160 mg/kg
# Mus musculus [6] = assay: Analgetic activity against CF-1 mouse assessed as increase in reaction time at 160 mg/kg, sc by heat stimulus induced tail flick response assay; format: functional, organism-based; parameters: dose 160 mg/kg
# Mus musculus [7] = species: Mus musculus; assay: Analgetic activity in naloxone challenged mouse assessed as frequency pretreated for 2 day by mouse jumping test; format: functional, organism-based
# Mus musculus [8] = assay: Analgetic activity against CF-1 mouse assessed as increase in reaction time at 1.2 mg/kg, sc by heat stimulus induced tail flick response assay; format: functional, organism-based; parameters: dose 1.2 mg/kg
# Mus musculus [9] = species: Mus musculus; assay: Analgetic activity in nalorphine challenged mouse assessed as frequency pretreated for 2 day by mouse jumping test; format: functional, organism-based
# Mus musculus [10] = assay: Analgetic activity against CF-1 mouse assessed as increase in reaction time at 80 mg/kg, po by heat stimulus induced tail flick response assay; format: functional, organism-based; parameters: dose 80 mg/kg
# Mus musculus [11] = assay: Analgetic activity against CF-1 mouse assessed as increase in reaction time at 80 mg/kg, sc by heat stimulus induced tail flick response assay; format: functional, organism-based; parameters: dose 80 mg/kg
# Mus musculus [12] = assay: Analgetic activity against CF-1 mouse assessed as increase in reaction time at 100 mg/kg, sc by heat stimulus induced tail flick response assay; format: functional, organism-based; parameters: dose 100 mg/kg
# Mus musculus [13] = assay: Analgetic activity in po dosed CF1S mouse assessed as writhing by phenylquinone writhing test; format: functional; details: Mus musculus, CF1S, po; read-out: ED50
# Mus musculus [14] = assay: Analgetic activity against CF-1 mouse assessed as increase in reaction time at 20 mg/kg, po by heat stimulus induced tail flick response assay; format: functional, organism-based; parameters: dose 20 mg/kg
# Mus musculus [15] = assay: Analgetic activity against CF-1 mouse assessed as increase in reaction time at 20 mg/kg, sc by heat stimulus induced tail flick response assay; format: functional, organism-based; parameters: dose 20 mg/kg
# Mus musculus [16] = assay: Analgetic activity against CF-1 mouse assessed as increase in reaction time at 40 mg/kg, sc by heat stimulus induced tail flick response assay; format: functional, organism-based; parameters: dose 40 mg/kg
# Mus musculus [17] = assay: Analgetic activity against CF-1 mouse assessed as increase in reaction time at 40 mg/kg, po by heat stimulus induced tail flick response assay; format: functional, organism-based; parameters: dose 40 mg/kg
# Mus musculus [18] = assay: Analgetic activity against CF-1 mouse assessed as increase in reaction time at 100 mg/kg, po by heat stimulus induced tail flick response assay; format: functional, organism-based; parameters: dose 100 mg/kg
# Mus musculus [19] = assay: Analgetic activity against CF-1 mouse assessed as increase in reaction time at 5 mg/kg, sc by heat stimulus induced tail flick response assay; format: functional, organism-based; parameters: dose 5 mg/kg
# Mus musculus [20] = assay: Analgetic activity against CF-1 mouse assessed as increase in reaction time at 10 mg/kg, po by heat stimulus induced tail flick response assay; format: functional, organism-based; parameters: dose 10 mg/kg
# Rhesus monkey = assay: Analgetic activity in naloxone challenged monkey assessed as frequency pretreated for 2 day by mouse jumping test; format: functional, organism-based; details: Macaca mulatta
# Mus musculus [21] = assay: Analgetic activity against CF-1 mouse assessed as increase in reaction time at 4 mg/kg, sc by heat stimulus induced tail flick response assay; format: functional, organism-based; parameters: dose 4 mg/kg
# Mus musculus [22] = assay: Analgetic activity against CF-1 mouse assessed as increase in reaction time at 30 mg/kg, sc by heat stimulus induced tail flick response assay; format: functional, organism-based; parameters: dose 30 mg/kg
# Mus musculus [23] = assay: Analgetic activity against CF-1 mouse assessed as increase in reaction time at 50 mg/kg, sc by heat stimulus induced tail flick response assay; format: functional, organism-based; parameters: dose 50 mg/kg
# Mus musculus [24] = assay: Analgetic activity against CF-1 mouse assessed as increase in reaction time at 320 mg/kg, po by heat stimulus induced tail flick response assay; format: functional, organism-based; parameters: dose 320 mg/kg
smiles,measurement,setting,value
CCC(=O)Oc1ccc2c(c1)C1(c3ccccc3)CCN(C)C(C2)C1C (stereo not given),Activity,Mus musculus [1],Active
O=C(Oc1ccc2c(c1)C1(c3ccccc3)CCN(C(=O)C3CC3)C(C2)C1)C1CC1 (racemic),Activity,Mus musculus [2],inactive
same,ED50,Mus musculus [3],> 100 mg/kg
Oc1ccc2c(c1)C1(c3ccccc3)CCNC(C2)C1 (racemic),Activity,Mus musculus [4],inactive
same,Activity,Mus musculus [5],inactive
CC1=C(c2ccccc2)CCN(C)C1Cc1ccc(O)cc1 (stereo not given),Activity,Mus musculus [6],Active
same,ED50,Mus musculus [3],5 mg/kg
same,Activity,Mus musculus [7],inactive
CC1C2Cc3ccc(OC(=O)c4cccc([N+](=O)[O-])c4)cc3C1(c1ccccc1)CCN2C (stereo not given),Activity,Mus musculus [8],Active
same,Activity,Mus musculus [9],Active
Oc1ccc2c(c1)C1(c3ccccc3)CCN(CCc3ccccc3)C(C2)C1 (stereo not given),Activity,Mus musculus [10],Active
same,Activity,Mus musculus [7],Active
c1ccc(CCN2CCC3(c4ccccc4)CC2Cc2ccccc23)cc1 (racemic),Activity,Mus musculus [5],Active
CN1CCC2(c3ccc(Cl)cc3)CC1Cc1ccccc12 (racemic),Activity,Mus musculus [11],Active
same,Activity,Mus musculus [5],Active
CC(O)C(=O)O.CC1C2Cc3ccc(O)cc3C1(c1ccccc1)CCN2CCCCc1ccccc1 (stereo not given),Activity,Mus musculus [12],inactive
same,ED50,Mus musculus [13],> 100 mg/kg
CC(=O)Oc1ccc2c(c1)C1(c3ccc(Cl)cc3)CCN(C)C(C2)C1 (racemic),Activity,Mus musculus [12],Active
same,ED50,Mus musculus [3],20 mg/kg
COc1cc(CC2C=C(c3ccccc3)CCN2C)cc(OC)c1OC (stereo not given),Activity,Mus musculus [10],Active
CN1CCC2(c3ccccc3)CC1Cc1cc(O)c(O)c(O)c12 (racemic),Activity,Mus musculus [5],inactive
CC1C2Cc3ccc(OC(=O)C4CCC4)cc3C1(c1ccccc1)CCN2C (stereo not given),Activity,Mus musculus [14],Active
same,Activity,Mus musculus [1],Active
CC1C2Cc3ccc(OC(=O)c4ccc(Cl)cc4)cc3C1(c1ccccc1)CCN2C (stereo not given),Activity,Mus musculus [8],Active
CCC1C2Cc3ccc(O)cc3C1(c1ccccc1)CCN2C (racemic),Activity,Mus musculus [15],Active
CN1CCC2(c3ccccc3)CC1Cc1ccc(O)cc12 (racemic),Activity,Mus musculus [15],Active
CC1C2Cc3ccccc3C1(c1ccccc1)CCN2C (racemic),Activity,Mus musculus [16],Active
same,Activity,Mus musculus [10],Active
CN1CCC2(c3ccccc3)CC1Cc1ccccc12 (racemic),Activity,Mus musculus [17],Active
same,Activity,Mus musculus [15],Active
CCOC(=O)CNC(=O)Oc1ccc2c(c1)C1(c3ccccc3)CCN(C)C(C2)[C@H]1C (stereo not given in full),Activity,Mus musculus [16],Active
same,Activity,Mus musculus [10],Active
CC(=O)N1CCC2(c3ccccc3)CC1Cc1ccc(O)cc12 (racemic),Activity,Mus musculus [18],inactive
same,ED50,Mus musculus [3],> 100 mg/kg
CC1C2Cc3ccc(O)cc3C1(c1ccccc1)CCN2C (racemic),Activity,Mus musculus [19],Active
same,Activity,Mus musculus [20],Active
Oc1ccc2c(c1)C1(c3ccccc3)CCN(CC3CCC3)C(C2)C1 (racemic),Activity,Rhesus monkey,inactive
CC(=O)Oc1ccc2c(c1)C1(c3ccccc3)CCN(C)C(C2)C1C (stereo not given),Activity,Mus musculus [21],Active
same,Activity,Mus musculus [20],Active
CC1C2Cc3ccc(OC(=O)c4ccco4)cc3C1(c1ccccc1)CCN2C(=O)c1ccco1 (stereo not given),Activity,Mus musculus [2],inactive
CC(=O)Oc1ccc2c(c1)C1(c3ccc(Cl)cc3)CCN(C#N)C(C2)C1 (racemic),Activity,Mus musculus [18],inactive
same,ED50,Mus musculus [3],> 100 mg/kg
Oc1ccc2c(c1)C1(c3ccccc3)CCN(CCCc3ccccc3)C(C2)C1 (racemic),Activity,Mus musculus [5],Active
same,ED50,Mus musculus [13],> 100 mg/kg
CC1C2Cc3ccc(OC(=O)c4cccc(Cl)c4)cc3C1(c1ccccc1)CCN2C (stereo not given),Activity,Mus musculus [8],Active
COCOc1ccc2c(c1)C1(c3ccccc3)CCN(C)C(C2)C1C (stereo not given),Activity,Mus musculus [19],Active
same,Activity,Mus musculus [14],Active
CC1C2Cc3ccc(O)cc3C1(c1ccc(F)cc1)CCN2C (racemic),Activity,Mus musculus [20],Active
same,Activity,Mus musculus [1],Active
CCN1CCC2(c3ccccc3)CC1Cc1ccc(O)cc12 (racemic),Activity,Mus musculus [22],inactive
same,ED50,Mus musculus [3],> 30 mg/kg
CC1C2Cc3ccc(O)cc3C1(c1ccccc1)CCN2CC(c1ccccc1)c1ccccc1 (stereo not given),Activity,Mus musculus [5],inactive
CC1C2Cc3ccc(OC(=O)c4ccccc4F)cc3C1(c1ccccc1)CCN2C (stereo not given),ED50,Mus musculus [3],0.5 mg/kg
same,Activity,Mus musculus [9],Active
CC1C2Cc3ccc(O)cc3C1(c1ccccc1)CCN2CCCC(=O)c1ccc(F)cc1.Cl.O (stereo not given),Activity,Mus musculus [23],inactive
same,ED50,Mus musculus [3],> 100 mg/kg
same,Activity,Mus musculus [7],inactive
CN1CCC(c2ccccc2)=CC1Cc1ccc(O)cc1 (stereo not given),Activity,Mus musculus [15],Active
same,ED50,Mus musculus [3],1.5 mg/kg
same,ED50,Mus musculus [13],27 mg/kg
same,Activity,Mus musculus [7],inactive
CC1C2Cc3ccc(O)cc3C1(c1ccccc1)CCN2CCc1ccc(N)cc1 (stereo not given),Activity,Mus musculus [20],Active
same,Activity,Mus musculus [8],Active
CN1CCC2(c3ccccc3)CC1Cc1ccccc12 (stereo in doubt; 36),Activity,Mus musculus [15],Active
same,Activity,Mus musculus [9],inactive
CC(C)CCN1CCC2(c3ccccc3)c3cc(O)ccc3CC1[C@H]2C (stereo not given in full),Activity,Mus musculus [5],Active
CN(C)C(=O)CCN1CCC2(c3ccccc3)CC1Cc1ccc(O)cc12 (racemic),Activity,Mus musculus [23],inactive
CC1C2Cc3ccc(OC(=O)c4ccccc4Cl)cc3C1(c1ccccc1)CCN2C (stereo not given),ED50,Mus musculus [13],49 mg/kg
same,Activity,Mus musculus [9],Active
Oc1ccc2c(c1)C1(c3ccccc3)CCN(CC3CC3)C(C2)C1 (racemic),Activity,Rhesus monkey,inactive
CC1C2Cc3ccc(O)cc3C1(c1ccccc1)CCN2CCc1ccccc1 (racemic),Activity,Mus musculus [17],Active
same,Activity,Mus musculus [15],Active
CC1C2Cc3ccc(O)cc3C1(c1ccccc1)CCN2CCC(C#N)(c1ccccc1)c1ccccc1 (stereo in doubt; 189),Activity,Mus musculus [24],inactive
same,Activity,Mus musculus [9],inactive
COc1ccc(CC2C=C(c3ccc(Cl)cc3)CCN2C)cc1 (stereo not given),Activity,Mus musculus [17],Active
same,Activity,Mus musculus [7],inactive
CC1C2Cc3ccc(OC(=O)CCl)cc3C1(c1ccccc1)CCN2C (stereo not given),Activity,Mus musculus [1],Active
CCCCCN1CCC2(c3ccccc3)c3cc(O)ccc3CC1C2C (racemic),Activity,Mus musculus [19],Active
CCCCCN1CCC2(c3ccccc3)c3cc(OC(C)=O)ccc3CC1C2C (stereo not given),Activity,Mus musculus [17],Active
same,Activity,Mus musculus [19],Active
CCCCCN1CCC2(c3ccccc3)c3cc(O)ccc3CC1C2C (stereo not given),Activity,Mus musculus [6],Active
same,Activity,Mus musculus [1],Active
CCCC(=O)Oc1ccc2c(c1)C1(c3ccccc3)CCN(C)C(C2)C1C (stereo not given),Activity,Mus musculus [20],Active
same,Activity,Mus musculus [14],Active
COc1ccc2c(c1)C1(c3ccccc3)CCN(C)C(C2)C1 (stereo not given),Activity,Mus musculus [24],inactive
same,Activity,Mus musculus [22],inactive
CC1C2Cc3ccc(O)cc3C1(c1ccccc1)CCN2C (stereo not given),Activity,Mus musculus [17],Active
same,Activity,Mus musculus [15],Active
COc1ccc2c(c1)C1(c3ccccc3)CCN(C)C(C2)C1 (racemic),Activity,Mus musculus [12],inactive
Cl.Oc1ccc2c(c1)C1(c3ccc(Cl)cc3)CCN(CCc3ccccc3)C(C2)C1 (racemic),Activity,Mus musculus [10],inactive
same,ED50,Mus musculus [3],> 100 mg/kg
CC1C2Cc3ccc(O)cc3C1(c1ccccc1)CCN2CCC(=O)c1ccccc1 (stereo not given),Activity,Mus musculus [5],Active
COc1ccc2c(c1)C1(c3ccccc3)CCN(C)C(C2)C1C (stereo not given),Activity,Mus musculus [16],Active
same,Activity,Mus musculus [11],Active
same,Activity,Mus musculus [14],Active

# From ChEMBL document CHEMBL3244027, “Syntheses, analgetic activity, and physical dependence capacity of 5-phenyl-6,7-benzomorphan derivatives” (J Med Chem, 1979)
